Assay results as given in PMC10531071, “Furmonertinib, a Third-Generation EGFR Tyrosine Kinase Inhibitor, Overcomes Multidrug Resistance through Inhibiting ABCB1 and ABCG2 in Cancer Cells” (International Journal of Molecular Sciences, 2023).

What was measured:
[1] = biological target: ABCB1 (P-glycoprotein; MDR1) (Homo sapiens, UniProt P08183); assay: vanadate-sensitive ATPase stimulation in High-Five insect cell membrane vesicles; also calcein-AM efflux inhibition in MDR19-HEK293 cells (IC50 […]); format: biochemical
ABCG2 (BCRP; MXR; ABCP) = biological target: T1, ABCG2 (BCRP; MXR; ABCP) (Homo sapiens, UniProt Q9UNQ0); assay: vanadate-sensitive ATPase stimulation in High-Five insect cell membrane vesicles; also PhA efflux inhibition in R482-HEK293 cells (IC50 […]); format: biochemical
T1 sequence (Q9UNQ0 1-655): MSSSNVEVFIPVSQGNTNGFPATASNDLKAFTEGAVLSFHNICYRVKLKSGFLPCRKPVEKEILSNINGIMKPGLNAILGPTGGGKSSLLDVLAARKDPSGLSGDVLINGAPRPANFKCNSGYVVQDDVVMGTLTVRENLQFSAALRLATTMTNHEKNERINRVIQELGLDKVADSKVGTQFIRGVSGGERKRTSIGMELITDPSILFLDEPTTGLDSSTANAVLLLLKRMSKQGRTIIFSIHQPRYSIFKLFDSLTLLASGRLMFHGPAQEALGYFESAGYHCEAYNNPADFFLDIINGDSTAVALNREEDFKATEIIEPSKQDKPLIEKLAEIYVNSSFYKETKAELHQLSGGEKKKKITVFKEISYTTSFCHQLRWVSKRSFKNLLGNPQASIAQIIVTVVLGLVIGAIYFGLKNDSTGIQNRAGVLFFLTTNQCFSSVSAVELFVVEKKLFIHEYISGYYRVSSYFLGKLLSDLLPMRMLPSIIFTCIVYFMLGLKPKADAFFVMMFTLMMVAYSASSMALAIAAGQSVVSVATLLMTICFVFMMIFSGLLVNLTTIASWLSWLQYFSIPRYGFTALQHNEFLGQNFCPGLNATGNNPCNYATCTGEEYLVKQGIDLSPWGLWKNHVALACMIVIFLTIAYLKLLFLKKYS

Sequence of ABCB1 (P-glycoprotein; MDR1) (P08183 whole entry): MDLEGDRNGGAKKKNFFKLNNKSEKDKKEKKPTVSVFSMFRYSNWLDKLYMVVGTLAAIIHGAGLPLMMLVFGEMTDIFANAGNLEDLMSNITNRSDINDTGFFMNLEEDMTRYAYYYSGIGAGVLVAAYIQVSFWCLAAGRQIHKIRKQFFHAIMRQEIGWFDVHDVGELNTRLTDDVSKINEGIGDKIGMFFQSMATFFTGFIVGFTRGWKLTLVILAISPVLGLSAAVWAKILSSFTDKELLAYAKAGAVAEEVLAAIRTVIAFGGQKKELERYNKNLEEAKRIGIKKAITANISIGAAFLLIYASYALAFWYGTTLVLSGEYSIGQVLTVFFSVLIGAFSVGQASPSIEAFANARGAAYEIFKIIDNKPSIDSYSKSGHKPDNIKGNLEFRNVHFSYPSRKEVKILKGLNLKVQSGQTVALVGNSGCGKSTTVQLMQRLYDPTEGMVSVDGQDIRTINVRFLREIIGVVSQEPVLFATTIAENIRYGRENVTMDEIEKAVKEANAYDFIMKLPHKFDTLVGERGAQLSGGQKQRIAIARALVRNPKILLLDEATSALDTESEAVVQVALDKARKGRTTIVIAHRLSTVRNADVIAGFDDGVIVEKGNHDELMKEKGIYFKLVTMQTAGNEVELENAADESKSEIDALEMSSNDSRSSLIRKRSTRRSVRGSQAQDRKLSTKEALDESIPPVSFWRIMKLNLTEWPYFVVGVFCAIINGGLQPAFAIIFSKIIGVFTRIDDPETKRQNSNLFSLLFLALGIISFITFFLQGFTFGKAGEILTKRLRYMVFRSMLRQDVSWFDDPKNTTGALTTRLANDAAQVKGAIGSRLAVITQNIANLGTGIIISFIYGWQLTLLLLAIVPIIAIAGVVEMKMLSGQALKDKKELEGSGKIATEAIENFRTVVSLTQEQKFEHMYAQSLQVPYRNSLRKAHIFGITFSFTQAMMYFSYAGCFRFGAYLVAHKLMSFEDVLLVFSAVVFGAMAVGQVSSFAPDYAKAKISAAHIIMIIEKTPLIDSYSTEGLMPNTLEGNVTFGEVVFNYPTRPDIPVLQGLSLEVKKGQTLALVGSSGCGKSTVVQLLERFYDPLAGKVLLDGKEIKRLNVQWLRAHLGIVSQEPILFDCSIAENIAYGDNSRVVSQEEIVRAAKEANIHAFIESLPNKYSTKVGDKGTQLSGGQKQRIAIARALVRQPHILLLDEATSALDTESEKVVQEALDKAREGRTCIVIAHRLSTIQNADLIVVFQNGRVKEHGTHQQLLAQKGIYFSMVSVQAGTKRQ

Question: Which EC50 [1] does the source give for `C=CC(=O)Nc1cc(Nc2nccc(-c3cn(C)c4ccccc34)n2)c(OCC(F)(F)F)nc1N(C)CCN(C)C` [furmonertinib] here?
Answer: ~600 nM

Question: What about the EC50 (ABCG2 (BCRP; MXR; ABCP)) of the same compound?
Answer: ~3 nM
